According to article PMC7202735 (Journal of medicinal chemistry, 2018):

Columns and labels:
[1] = system: CB1; conditions: cited from earlier work
[2] = system: MG63 cells; test: Wound healing scratch assay, MG63; assay type: cell-based, human; conditions: MG63 cell line, Figure 2d
[3] = system: endothelial HUVEC cells; test: Angiogenesis assay: endothelial tube formation on matrigel; assay type: cell-based, human; conditions: 0.5 μM and 1 μM, 5 hours
[4] = system: 143B cells; test: Wound healing scratch assay, 143B; assay type: cell-based, human; conditions: 143B cell line, with rimonabant, Supplementary Figure S4
[5] = system: 143B; test: Cell cycle analysis by propidium iodide staining, 143B; assay type: cell-based, human; conditions: treated 24 hours
[6] = molecular target: T1, Fatty acid amide hydrolase (FAAH) (Sus scrofa, UniProt Q9TUI8); conditions: cited from earlier work
T1 sequence (Q9TUI8 1-579): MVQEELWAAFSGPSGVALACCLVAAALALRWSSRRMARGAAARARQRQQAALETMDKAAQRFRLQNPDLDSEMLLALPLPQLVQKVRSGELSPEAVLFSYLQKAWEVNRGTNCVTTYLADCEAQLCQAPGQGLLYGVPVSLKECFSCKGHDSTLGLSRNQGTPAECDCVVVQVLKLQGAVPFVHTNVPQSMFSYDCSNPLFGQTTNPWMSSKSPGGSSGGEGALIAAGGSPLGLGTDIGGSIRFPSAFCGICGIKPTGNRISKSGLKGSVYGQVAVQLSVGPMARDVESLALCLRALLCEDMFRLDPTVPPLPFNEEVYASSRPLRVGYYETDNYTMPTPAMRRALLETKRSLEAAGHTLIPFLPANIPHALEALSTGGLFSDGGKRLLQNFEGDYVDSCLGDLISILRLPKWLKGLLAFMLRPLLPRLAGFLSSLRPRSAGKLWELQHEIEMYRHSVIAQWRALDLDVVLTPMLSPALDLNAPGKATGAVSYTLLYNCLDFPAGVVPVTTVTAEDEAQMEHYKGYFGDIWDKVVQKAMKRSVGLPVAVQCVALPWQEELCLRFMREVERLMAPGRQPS

[7] = system: HOS, 143B and MG63 cells; assay type: cell-based, human; conditions: for induction of apoptosis as compared to no treatment control: all three cell lines, 12.5 μM; for apoptotic activity as compared to control: antagonist alone, supplementary tables 2–4

CCCCCC=CCC=CCC=CCC=CCCCC(=O)NC(C)CO (single isomer, unassigned) [R isomer]
CB1 binding, fold higher as compared to AEA [1]: 4 fold

CCCCCC=CCC=CCC=CCC=CCCCC(=O)NC(C)CO (single isomer, unassigned) [S isomers]
CB1 binding, fold lower as compared to AEA [1]: 2 fold

CC/C=C\C/C=C\C/C=C\CC1OC1C/C=C\C/C=C\CCC(=O)NC1CC1 (stereo not drawn) [10,11-EDP-CA, (4Z,7Z)-N-cyclopropyl-9-(3-((2Z,5Z,8Z)-undeca-2,5,8-trien-1-yl)oxiran-2-yl)nona-4,7-dienamide]
restriction in wound healing as compared to the control [2]: comparable to 10,11-EDP-EA | tube formation as compared to the vehicle control [3]: Restriction of tube formation

CC/C=C\C/C=C\C/C=C\CC1OC1C/C=C\C/C=C\CCC(=O)NCCO (stereo not drawn) [10,11-EDP-EA, (4Z,7Z)-N-(2-hydroxyethyl)-9-(3-((2Z,5Z,8Z)-undeca-2,5,8-trien-1-yl)oxiran-2-yl)nona-4,7-dienamide]
reduction of cell migration in presence of CB1 receptor antagonist [4]: completely abolished | tube formation as compared to the vehicle control [3]: Restriction of tube formation

CC/C=C\C/C=C\C/C=C\CC1OC1C/C=C\C/C=C\CCC(=O)NC(C)CO (stereo not drawn) [10,11-EDP-IA, (4Z,7Z)-N-(1-hydroxypropan-2-yl)-9-(3-((2Z,5Z,8Z)-undeca-2,5,8-trien-1-yl)oxiran-2-yl)nona-4,7-dienamide]
restriction in wound healing as compared to the control [2]: slightly poorer than the control | tube formation as compared to the vehicle control [3]: Restriction of tube formation

CC/C=C\C/C=C\C/C=C\CC1OC1C/C=C\C/C=C\CCC(=O)NCCCO (stereo not drawn) [10,11-EDP-NA, (4Z,7Z)-N-(3-hydroxypropyl)-9-(3-((2Z,5Z,8Z)-undeca-2,5,8-trien-1-yl)oxiran-2-yl)nona-4,7-dienamide]
restriction in wound healing as compared to the control [2]: slightly poorer than the control | percentage of cells in S [5]: slight suppression | tube formation as compared to the vehicle control [3]: Restriction of tube formation

CCC1OC1C/C=C\C/C=C\C/C=C\C/C=C\C/C=C\CCC(=O)NCCO (stereo not drawn) [19,20-EDP-EA]
rate of hydrolysis [6]: 150 pmol min−1 mg protein−1

CCCCC/C=C\C/C=C\C/C=C\C/C=C\CCCC(=O)O [AA, arachidonic acid]
induction of apoptosis as compared to no treatment control [7]: no induction of apoptosis

CCCCC/C=C\C/C=C\C/C=C\C/C=C\CCCC(=O)NCCO [AEA, arachidonoyl ethanolamide]
induction of apoptosis as compared to no treatment control [7]: no induction of apoptosis

COc1ccc(C(=O)c2c(C)n(CCN3CCOCC3)c3cc(I)ccc23)cc1 [AM 630]
apoptotic activity as compared to control [7]: very limited apoptotic activity

CC/C=C\C/C=C\C/C=C\C/C=C\C/C=C\C/C=C\CCC(=O)O [DHA, docosahexaenoic acid]
induction of apoptosis as compared to no treatment control [7]: no induction of apoptosis

CC/C=C\C/C=C\C/C=C\C/C=C\C/C=C\C/C=C\CCC(=O)NCCO [DHEA, docosahexaenoylethanolamide]
induction of apoptosis as compared to no treatment control [7]: no induction of apoptosis

Cc1c(C(=O)NN2CCCCC2)nn(-c2ccc(Cl)cc2Cl)c1-c1ccc(Cl)cc1 [rimonabant]
apoptotic activity as compared to control [7]: very limited apoptotic activity
